Data published in US8614327B2 (Vertex Pharmaceuticals Incorporated, priority 2004, dated 2013).

Molecular target: T1, ΔF508-CFTR (Homo sapiens, UniProt P13569, DEL508-508)
T1 construct: expressed in transfected cells
Assay: Membrane potential optical (FRET/VIPR) assay, identification of potentiator compounds
Type: cell-based
Settings: Table 3, assay not given; for % Activity: relative efficacy
How it was run: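 Double-addition potentiator screen: compound delivered in gluconate-substituted Cl^--free medium, membrane potential followed via CC2-DMPE/DiSBAC2(3) FRET on VIPR. Cells were ΔF508-CFTR-expressing NIH3T3 mouse fibroblasts, held 2 h at 37° C. then 24 h at 27° C. before assay.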

T1 sequence (P13569 with tags, fused parts or gaps DEL508-508): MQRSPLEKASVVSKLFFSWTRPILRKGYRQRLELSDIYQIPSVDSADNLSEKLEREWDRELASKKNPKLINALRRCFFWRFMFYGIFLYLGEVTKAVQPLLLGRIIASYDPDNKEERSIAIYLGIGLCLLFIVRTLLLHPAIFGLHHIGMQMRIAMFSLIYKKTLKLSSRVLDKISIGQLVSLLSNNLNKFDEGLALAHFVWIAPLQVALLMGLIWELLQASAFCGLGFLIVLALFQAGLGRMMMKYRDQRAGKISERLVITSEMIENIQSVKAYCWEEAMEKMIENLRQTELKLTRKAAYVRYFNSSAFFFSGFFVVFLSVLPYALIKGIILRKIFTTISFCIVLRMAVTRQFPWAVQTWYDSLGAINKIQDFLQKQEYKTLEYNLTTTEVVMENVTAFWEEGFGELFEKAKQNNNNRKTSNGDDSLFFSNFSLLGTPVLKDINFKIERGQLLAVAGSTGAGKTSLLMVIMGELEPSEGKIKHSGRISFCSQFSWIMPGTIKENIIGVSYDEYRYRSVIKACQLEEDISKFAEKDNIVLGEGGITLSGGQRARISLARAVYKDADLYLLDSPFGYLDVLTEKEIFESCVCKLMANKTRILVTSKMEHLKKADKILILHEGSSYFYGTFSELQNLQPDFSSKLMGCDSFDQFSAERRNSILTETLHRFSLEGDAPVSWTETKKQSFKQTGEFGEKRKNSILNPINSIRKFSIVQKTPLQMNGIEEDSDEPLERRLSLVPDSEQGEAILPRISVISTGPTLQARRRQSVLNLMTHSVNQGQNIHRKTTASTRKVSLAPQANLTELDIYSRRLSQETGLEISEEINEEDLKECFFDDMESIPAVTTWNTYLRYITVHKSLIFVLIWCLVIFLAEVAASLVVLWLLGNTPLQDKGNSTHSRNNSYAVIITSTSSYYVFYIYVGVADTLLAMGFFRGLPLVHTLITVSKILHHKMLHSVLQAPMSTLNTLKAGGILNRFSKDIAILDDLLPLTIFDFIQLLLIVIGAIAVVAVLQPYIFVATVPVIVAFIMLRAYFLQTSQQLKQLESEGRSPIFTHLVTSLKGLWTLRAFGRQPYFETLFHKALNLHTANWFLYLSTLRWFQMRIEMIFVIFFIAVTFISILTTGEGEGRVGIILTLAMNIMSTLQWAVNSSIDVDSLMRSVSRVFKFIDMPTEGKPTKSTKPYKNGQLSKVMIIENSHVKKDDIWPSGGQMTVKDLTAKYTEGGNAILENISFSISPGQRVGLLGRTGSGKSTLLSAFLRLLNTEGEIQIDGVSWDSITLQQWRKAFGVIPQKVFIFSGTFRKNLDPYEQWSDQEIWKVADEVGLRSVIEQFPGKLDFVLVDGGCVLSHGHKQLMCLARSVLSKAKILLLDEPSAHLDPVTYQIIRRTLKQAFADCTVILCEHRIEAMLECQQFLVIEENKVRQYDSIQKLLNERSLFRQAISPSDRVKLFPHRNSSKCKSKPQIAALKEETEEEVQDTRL

SMILES | % Activity | EC50 [µM]
Nc1cc(Cl)cc(NC(=O)c2c[nH]c3ccccc3c2=O)c1 [Compound 131, N-(3-amino-5-chloro-phenyl)-4-oxo-1H-quinoline-3-carboxamide] | ++ (between 25% to 100%) | 
O=C(Nc1ccccc1-c1cc(F)ccc1F)c1c[nH]c2ccccc2c1=O [Compound 384, N-[2-(2,5-difluorophenyl)phenyl]-4-oxo-1H-quinoline-3-carboxamide] | ++ (between 25% to 100%) | < 10
O=C(Nc1cc(O)c(C2CCCC2)cc1C#CCO)c1c[nH]c2ccccc2c1=O [Compound 512, N-[4-cyclopentyl-5-hydroxy-2-(3-hydroxyprop-1-ynyl)phenyl]-4-oxo-1H-quinoline-3-carboxamide] | ++ (between 25% to 100%) | < 10
CC(C)(C)c1cc(F)c(NC(=O)c2c[nH]c3ccc(F)cc3c2=O)cc1O [Compound 319, 6-fluoro-N-(2-fluoro-5-hydroxy-4-tert-butyl-phenyl)-4-oxo-1H-quinoline-3-carboxamide] | ++ (between 25% to 100%) | < 10
COC(=O)Nc1ccc(C(C)C)c(NC(=O)c2c[nH]c3ccccc3c2=O)c1 [Compound 239, [4-isopropyl-3-[(4-oxo-1H-quinolin-3-yl)carbonylamino]phenyl]aminoformic acid methyl ester] | ++ (between 25% to 100%) | < 10
COc1ccc2[nH]cc(C(=O)Nc3cc(O)c(C4(C)CCCCC4)cc3F)c(=O)c2c1 [Compound 584, N-[2-fluoro-5-hydroxy-4-(1-methylcyclohexyl)-phenyl]-6-methoxy-4-oxo-1H-quinoline-3-carboxamide] | ++ (between 25% to 100%) | < 10
Cc1cccc2[nH]cc(C(=O)Nc3ccc(N4CCCC(C)C4)cc3C(F)(F)F)c(=O)c12 (stereo not shown) [Compound 643, 5-methyl-N-[4-(3-methyl-1-piperidyl)-2-(trifluoromethyl)phenyl]-4-oxo-1H-quinoline-3-carboxamide] | ++ (between 25% to 100%) | < 10
CC(C)c1ccc(-c2ccccc2NC(=O)c2c[nH]c3ccccc3c2=O)cc1 [Compound 432, N-[2-(4-isopropylphenyl)phenyl]-4-oxo-1H-quinoline-3-carboxamide] | ++ (between 25% to 100%) | < 10
CS(=O)(=O)c1ccc(-c2ccccc2NC(=O)c2c[nH]c3ccccc3c2=O)cc1 [Compound 326, N-[2-(4-methylsulfonylphenyl)phenyl]-4-oxo-1H-quinoline-3-carboxamide] | ++ (between 25% to 100%) | 10 to 25
CC(C)(C)c1ccc(NC(=O)c2cnc3ccccc3c2OCc2ccccc2)cc1O [Compound 275, 4-Benzyloxy-N-(3-hydroxy-4-tert-butyl-phenyl)-quinoline-3-carboxamide] | ++ (between 25% to 100%) | 10 to 25
Cc1cccc2c(=O)c(C(=O)Nc3cc4[nH]ccc4cc3C(C)(C)C)c[nH]c12 [Compound 644, 8-methyl-4-oxo-N-(5-tert-butyl-1H-indol-6-yl)-1H-quinoline-3-carboxamide] | + (<25%) | < 10
Nc1cc(NC(=O)c2c[nH]c3ccccc3c2=O)ccc1OC(F)(F)F [Compound 58, N-[3-amino-4-(trifluoromethoxy)phenyl]-4-oxo-1H-quinoline-3-carboxamide] | ++ (between 25% to 100%) | < 10
CCOC(=O)Nc1ccc(CC)c(NC(=O)c2c[nH]c3ccccc3c2=O)c1 [Compound 472, [4-ethyl-3-[(4-oxo-1H-quinolin-3-yl)carbonylamino]phenyl]aminoformic acid ethyl ester] | ++ (between 25% to 100%) | 
O=C(Nc1cc2[nH]ccc2cc1F)c1c[nH]c2ccccc2c1=O [Compound 77, N-(5-fluoro-1H-indol-6-yl)-4-oxo-1H-quinoline-3-carboxamide] | ++ (between 25% to 100%) | < 10
CC1(C)CNc2cc(NC(=O)c3c[nH]c4ccccc4c3=O)ccc21 [Compound 386, N-(3,3-dimethylindolin-6-yl)-4-oxo-1H-quinoline-3-carboxamide] | ++ (between 25% to 100%) | < 10
CSc1ccccc1-c1ccccc1NC(=O)c1c[nH]c2ccccc2c1=O [Compound 279, N-[2-(2-methylsulfanylphenyl)phenyl]-4-oxo-1H-quinoline-3-carboxamide] | ++ (between 25% to 100%) | 
Nc1nc2ccc(NC(=O)c3c[nH]c4ccccc4c3=O)cc2s1 [Compound 671, N-(2-aminobenzothiazol-6-yl)-4-oxo-1H-quinoline-3-carboxamide] | ++ (between 25% to 100%) | < 10

SMILES | % Activity | EC50 [µM]
COc1ccc(Cl)cc1-c1cc2cc[nH]c2cc1NC(=O)c1c[nH]c2ccccc2c1=O [Compound 1, N-[5-(5-chloro-2-methoxy-phenyl)-1H-indol-6-yl]-4-oxo-1H-quinoline-3-carboxamide] | ++ (between 25% to 100%) | < 10
O=C(Nc1cc(O)c(Cl)cc1Cl)c1c[nH]c2ccccc2c1=O [Compound 608, N-(2,4-dichloro-5-hydroxy-phenyl)-4-oxo-1H-quinoline-3-carboxamide] | ++ (between 25% to 100%) | < 10
Cc1cccc2[nH]cc(C(=O)Nc3ccc(OC(C)C)c(O)c3)c(=O)c12 [Compound 701, N-(3-hydroxy-4-isopropoxy-phenyl)-5-methyl-4-oxo-1H-quinoline-3-carboxamide] | ++ (between 25% to 100%) | < 10
O=C(Nc1ccccc1Cl)c1c[nH]c2ccccc2c1=O [Compound 330, N-(2-chlorophenyl)-4-oxo-1H-quinoline-3-carboxamide] | ++ (between 25% to 100%) | < 10
Cn1cnnc1-c1ccc(NC(=O)c2c[nH]c3ccccc3c2=O)cc1 [Compound 301, N-[4-(4-methyl-4H-1,2,4-triazol-3-yl)phenyl]-4-oxo-1H-quinoline-3-carboxamide] | + (<25%) | 25 to 60
CC(C)c1cc(C(F)(F)F)c(NC(=O)c2c[nH]c3ccccc3c2=O)cc1O [Compound 497, N-[5-hydroxy-4-isopropyl-2-(trifluoromethyl)phenyl]-4-oxo-1H-quinoline-3-carboxamide] | +++ (>100%) | < 10
CCOc1ccccc1-c1cc(C(C)(C)C)c(O)cc1NC(=O)c1c[nH]c2ccccc2c1=O [Compound 23, N-[2-(2-ethoxyphenyl)-5-hydroxy-4-tert-butyl-phenyl]-4-oxo-1H-quinoline-3-carboxamide] | ++ (between 25% to 100%) | < 10
CCc1ccc(NC(=O)c2c[nH]c3ccccc3c2=O)cc1NC(C)=O [Compound 149, N-(3-acetylamino-4-ethyl-phenyl)-4-oxo-1H-quinoline-3-carboxamide] | ++ (between 25% to 100%) | 10 to 25
CCOC(=O)Nc1cc(NC(=O)c2c[nH]c3ccccc3c2=O)ccc1CC [Compound 298, [2-ethyl-5-[(4-oxo-1H-quinolin-3-yl)carbonylamino]phenyl]aminoformic acid ethyl ester] | ++ (between 25% to 100%) | 
CN(C)c1cc(NC(=O)c2c[nH]c3ccccc3c2=O)ccc1C(C)(C)C [Compound 485, N-(3-Dimethylamino-4-tert-butyl-phenyl)-4-oxo-1H-quinoline-3-carboxamide] | ++ (between 25% to 100%) | 
O=C(Nc1ccc(N2CCC[C@@H]2C(=O)O)cc1C(F)(F)F)c1c[nH]c2ccccc2c1=O [Compound 698, (R)-1-[4-[(4-oxo-1H-quinolin-3-yl)carbonylamino]-3-(trifluoromethyl)phenyl]pyrrolidine-2-carboxylic acid] | ++ (between 25% to 100%) | < 10
CC(C)(C)c1ccc(NC(=O)c2c[nH]c3cccc(O)c3c2=O)cc1O [Compound 633, 5-hydroxy-N-(3-hydroxy-4-tert-butyl-phenyl)-4-oxo-1H-quinoline-3-carboxamide] | ++ (between 25% to 100%) | < 10
CC(C)(C)c1ccc(NC(=O)c2c[nH]c3ccccc3c2=O)cc1OCCO [Compound 458, N-[3-(2-hydroxyethoxy)-4-tert-butyl-phenyl]-4-oxo-1H-quinoline-3-carboxamide] | ++ (between 25% to 100%) | < 10
O=C(Nc1cc2[nH]ccc2cc1F)c1c[nH]c2cccc(O)c2c1=O [Compound 596, N-(5-fluoro-1H-indol-6-yl)-5-hydroxy-4-oxo-1H-quinoline-3-carboxamide] | ++ (between 25% to 100%) | < 10
COC(=O)C1CCCCN1c1ccc(NC(=O)c2c[nH]c3ccccc3c2=O)c(C(F)(F)F)c1 (stereo not shown) [Compound 492, methyl 1-[4-[(4-oxo-1H-quinolin-3-yl)carbonylamino]-3-(trifluoromethyl)phenyl]piperidine-2-carboxylate] | +++ (>100%) | < 10
COc1ccc(NC(=O)c2c[nH]c3ccccc3c2=O)cc1N [Compound 378, N-(3-amino-4-methoxy-phenyl)-4-oxo-1H-quinoline-3-carboxamide] | ++ (between 25% to 100%) | 10 to 25
